This experiment deals with T1, G3BP1 (Homo sapiens, UniProt Q13283).
T1 construct: full-length, EGFP-tagged (mEGFP), recombinant in E. coli BL21(DE3) from pET-28a, size-exclusion purified; immobilized on CM5 chip
In words: SPR (Biacore 8K, CM5 chip, immobilized EGFP-G3BP1, […] Langmuir fit). The class given is binding. In general terms: SPR reads the build-up and loss of mass on a sensor chip optically.

Results on two molecules are retold here after article PMC11984871, “Perillaldehyde Improves Parkinson‐Like Deficits by Targeting G3BP Mediated Stress Granule Assembly in Preclinical Models” (Advanced Science, 2025).

T1 sequence (Q13283 2-466): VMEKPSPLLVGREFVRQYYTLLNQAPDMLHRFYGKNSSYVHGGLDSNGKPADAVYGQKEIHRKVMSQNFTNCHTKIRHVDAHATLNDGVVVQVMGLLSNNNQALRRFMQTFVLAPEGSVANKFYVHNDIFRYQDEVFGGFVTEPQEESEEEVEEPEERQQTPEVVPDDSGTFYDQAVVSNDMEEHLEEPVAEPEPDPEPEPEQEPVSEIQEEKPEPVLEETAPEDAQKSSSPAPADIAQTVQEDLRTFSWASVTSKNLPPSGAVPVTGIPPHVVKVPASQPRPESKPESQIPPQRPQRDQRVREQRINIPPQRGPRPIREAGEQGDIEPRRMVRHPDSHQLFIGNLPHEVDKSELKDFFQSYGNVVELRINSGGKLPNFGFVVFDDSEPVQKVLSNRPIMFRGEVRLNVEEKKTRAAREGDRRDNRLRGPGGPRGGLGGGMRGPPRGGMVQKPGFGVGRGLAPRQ

`CC(=NNC(=O)c1ccccc1O)c1ccccc1O` [C108] displayed a Kd of 2.71 µM. Next, `C=C(C)[C@@H]1CC=C(C=O)CC1` [perillaldehyde]: 5.49 µM.

What is called Kd is the concentration at which binding is half-saturated. Read a high Kd as a looser complex.
